Where two headings read alike, the source gives them in different places.
What was measured:
[1] = molecular target: T1, recombinant matrilysin (PUMP-1) (Homo sapiens, UniProt P09237); test: Inhibition of recombinant matrilysin (PUMP-1, MMP-7), 14C-acetylated casein; type: biochemical; settings: 37° C., 16 hours, pH 7.6; read-out: In vitro inhibitory activity IC50, Matrilysin (MMP-7)
T1 sequence (P09237 95-267): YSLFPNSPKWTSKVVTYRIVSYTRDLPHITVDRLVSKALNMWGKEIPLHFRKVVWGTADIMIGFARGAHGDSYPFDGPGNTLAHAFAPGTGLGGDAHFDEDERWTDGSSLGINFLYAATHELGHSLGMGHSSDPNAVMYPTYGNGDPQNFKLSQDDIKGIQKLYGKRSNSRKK

[2] = molecular target: T2, human fibroblast collagenase (Homo sapiens, UniProt P03956); test: Inhibition of human fibroblast collagenase (MMP-1), 14C-acetylated collagen; type: biochemical; settings: for IC50: 37° C., 16 hours, pH 7.5, read-out: In vitro inhibitory activity IC50, Fib. Collag. (MMP-1); for inhibition at 100 µM: read-out: % I (inhibition), Fib. Collag. (MMP-1)
T2 sequence (P03956 100-469): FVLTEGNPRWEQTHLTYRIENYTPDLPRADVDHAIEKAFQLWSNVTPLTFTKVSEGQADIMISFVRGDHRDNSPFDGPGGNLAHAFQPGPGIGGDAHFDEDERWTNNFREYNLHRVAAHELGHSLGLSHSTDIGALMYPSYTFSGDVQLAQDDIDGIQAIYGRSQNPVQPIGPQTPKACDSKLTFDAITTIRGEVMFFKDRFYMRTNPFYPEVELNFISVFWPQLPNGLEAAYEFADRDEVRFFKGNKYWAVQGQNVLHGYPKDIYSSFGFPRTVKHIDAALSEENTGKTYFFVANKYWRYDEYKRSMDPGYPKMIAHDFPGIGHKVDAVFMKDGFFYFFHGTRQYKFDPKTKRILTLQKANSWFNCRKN

[3] = molecular target: T3, 72 kDa gelatinase (Homo sapiens, UniProt P08253); test: biochemical
T3 sequence (P08253 110-660): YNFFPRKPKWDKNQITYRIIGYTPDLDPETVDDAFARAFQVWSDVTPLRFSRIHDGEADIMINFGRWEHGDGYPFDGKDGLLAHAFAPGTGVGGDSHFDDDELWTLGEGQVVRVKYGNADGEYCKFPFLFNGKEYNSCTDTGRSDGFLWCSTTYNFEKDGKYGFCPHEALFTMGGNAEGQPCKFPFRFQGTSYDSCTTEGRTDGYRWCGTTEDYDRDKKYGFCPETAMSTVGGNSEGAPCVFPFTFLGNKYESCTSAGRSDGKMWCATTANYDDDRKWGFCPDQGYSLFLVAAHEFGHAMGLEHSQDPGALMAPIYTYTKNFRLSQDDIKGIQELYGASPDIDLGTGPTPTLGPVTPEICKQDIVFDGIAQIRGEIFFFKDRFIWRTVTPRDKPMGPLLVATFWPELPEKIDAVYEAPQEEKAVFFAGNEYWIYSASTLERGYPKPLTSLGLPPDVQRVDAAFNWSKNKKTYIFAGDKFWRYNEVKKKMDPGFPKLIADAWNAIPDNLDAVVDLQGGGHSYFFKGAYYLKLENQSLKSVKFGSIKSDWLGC

[4] = molecular target: T4, stromelysin-1 (Homo sapiens, UniProt P08254); test: biochemical
[5] = molecular target: T4, stromelysin-1; settings: read-out: In vitro inhibitory activity IC50, Stromelysin-1 (MMP-3); 37° C., 16 hours, pH 7.5
[6] = molecular target: T3, 72 kDa gelatinase; settings: read-out: In vitro inhibitory activity IC50, Gelatinase A (MMP-2); 37° C., 16 hours; enzyme from RPMI-7951 cells

T4 sequence (P08254 100-477, species assumed): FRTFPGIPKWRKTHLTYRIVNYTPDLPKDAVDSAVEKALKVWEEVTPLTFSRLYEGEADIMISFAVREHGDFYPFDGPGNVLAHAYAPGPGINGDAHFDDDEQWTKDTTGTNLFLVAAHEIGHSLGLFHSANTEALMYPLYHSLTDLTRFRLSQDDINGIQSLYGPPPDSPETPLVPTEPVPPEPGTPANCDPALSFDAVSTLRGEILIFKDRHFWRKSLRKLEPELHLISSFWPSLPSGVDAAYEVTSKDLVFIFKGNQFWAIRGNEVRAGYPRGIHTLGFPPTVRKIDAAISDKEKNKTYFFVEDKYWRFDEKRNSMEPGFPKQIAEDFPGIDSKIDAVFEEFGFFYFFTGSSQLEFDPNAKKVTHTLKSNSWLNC

| IC50 [1] | IC50 [2] | IC50 [3] | IC50 [4] | SMILES | inhibition at 100 µM [2] | inhibition at 100 µM ([3]; read-out: % I (inhibition), Gelatinase A (MMP-2)) | IC50 [5] | IC50 [6] |
| --- | --- | --- | --- | --- | --- | --- | --- | --- |
| 20 nM |  |  |  | C=CC[C@H](C(=O)NO)[C@@H](CC(C)C)C(=O)N[C@H](C(=O)NC)C(C)(C)C [Comparator 2, 2S-Allyl-N^4-(2,2-dimethyl-1S-methylcarbamoyl-propyl)-N^1-hydroxy-3R-isobutyl-succinamide, reference compound] |  |  |  |  |
| 4 nM | 600 nM | 3000 nM | 50 nM | CC(C)C[C@@H](C(=O)N[C@H](C(=O)NC(c1ccccc1)c1ccccc1)C(C)(C)C)[C@H](O)C(=O)NO [Example 1, N^4-[1S-(Benzhydryl-carbamoyl)-2,2-dimethyl-propyl]-2S,N^1-dihydroxy-3R-isobutyl-succinamide] |  |  |  |  |
| 70 nM | 2000 nM | 17000 nM | 200 nM | CC(C)C[C@@H](C(=O)N[C@H](C(=O)NC1c2ccccc2-c2ccccc21)C(C)(C)C)[C@H](O)C(=O)NO [Example 2, N^4-[1S-(9H-Fluoren-9-ylcarbamoyl)-2,2-dimethyl-propyl]-2S,N^1-dihydroxy-3R-isobutyl-succinamide] |  |  |  |  |
| 10 nM | 400 nM | 2000 nM | 200 nM | CC(C)C[C@@H](C(=O)N[C@H](C(=O)NC(c1ccccc1)c1ccc(Cl)cc1)C(C)(C)C)[C@H](O)C(=O)NO (stereo partly drawn) [Example 3, N^4-(1S-{[(4-Chloro-phenyl)-phenyl-methyl]-carbamoyl}-2,2-dimethyl-propyl)-2R,N^1-dihydroxy-3R-isobutyl-succinamide] |  |  |  |  |
| 9 nM | 400 nM | 500 nM | 60 nM | CC(C)C[C@@H](C(=O)N[C@H](C(=O)NC(c1ccccc1)c1ccc(F)cc1)C(C)(C)C)[C@H](O)C(=O)NO (stereo partly drawn) [Example 4, N^4-(1S-{[(4-Fluoro-phenyl)-phenyl-methyl]-carbamoyl}-2,2-dimethyl-propyl)-2S,N^1-dihydroxy-3-isobutyl-succinamide] |  |  |  |  |
| 9 nM | 700 nM | 600 nM | 100 nM | CC(C)C[C@@H](C(=O)N[C@H](C(=O)NC(c1ccccc1)c1ccccc1F)C(C)(C)C)[C@H](O)C(=O)NO (stereo partly drawn) [Example 5, N^4-(1S-{[(2-Fluoro-phenyl)-phenyl-methyl]-carbamoyl}-2,2-dimethyl-propyl)-2S,N^1-dihydroxy-3R-isobutyl-succinamide] |  |  |  |  |
| 15 nM | 2000 nM | 600 nM | 200 nM | CC(C)C[C@@H](C(=O)N[C@H](C(=O)NC(c1ccccc1)c1ccccc1)C(C)(C)O)[C@H](O)C(=O)NO [Example 6, N^4-[1S-(Benzhydryl-carbamoyl)-2-hydroxy-2-methyl-propyl]-2S, N^1-dihydroxy-3R-isobutyl-succinamide] |  |  |  |  |
| 9 nM | 700 nM | 1000 nM | 20 nM | CO[C@H](C(=O)NO)[C@@H](CC(C)C)C(=O)N[C@H](C(=O)NC(c1ccccc1)c1ccccc1)C(C)(C)O [Example 8] |  |  |  |  |
| 1000 nM | 10000 nM |  |  | CC(C)(C)[C@H](NC(=O)[C@H](CCCc1ccccc1)[C@H](O)C(=O)NO)C(=O)NC(c1ccccc1)c1ccccc1 [Example 10, N^4-[1S-(Benzhydryl-carbamoyl)-2,2-dimethyl-propyl]-2S,N^1-dihydroxy-3R-(3-phenyl-propyl)-succinamide] |  |  |  |  |
| 20 nM | 300 nM | 1000 nM | 200 nM | CC(C)C[C@@H](C(=O)N[C@H](C(=O)NC(c1ccccn1)c1ccccn1)C(C)(C)C)[C@H](O)C(=O)NO [Example 11, N^4 -{1S-[(Di-pyridin-2-yl-methyl)-carbamoyl]-2,2-dimethyl-propyl}-2S,N^1-dihydroxy-3R-isobutyl-succinamide] |  |  |  |  |
| 30 nM | 800 nM | 40000 nM | 80 nM | C=CC[C@H](C(=O)NO)[C@@H](CC(C)C)C(=O)N[C@H](C(=O)NC(c1ccccc1)c1ccccc1)C(C)(C)C [Example 12, 2S-Allyl-N^4-[1S-(benzhydryl-carbamoyl)-2,2-dimethyl-propyl]-N^1-hydroxy-3R-isobutyl-succinamide] |  |  |  |  |
| 400 nM | 30000 nM | 20000 nM | 60 nM | C=CC[C@H](C(=O)NO)[C@@H](CCCCCCCC)C(=O)N[C@H](C(=O)NC(c1ccccc1)c1ccccc1)C(C)(C)C [Example 13, 2S-Allyl-N^4-[1S-(benzhydryl-carbamoyl)-2,2-dimethyl-propyl]-N^1-hydroxy-3R-octyl-succinamide] |  |  |  |  |

| SMILES | IC50 [1] | IC50 [2] | IC50 [3] | IC50 [4] | inhibition at 100 µM [2] | inhibition at 100 µM ([3]; read-out: % I (inhibition), Gelatinase A (MMP-2)) | IC50 [5] | IC50 [6] |
| --- | --- | --- | --- | --- | --- | --- | --- | --- |
| CO[C@H](C(=O)O)[C@@H](CC(C)C)C(=O)N[C@H](C(=O)NC(c1ccccc1)c1ccccc1)C(C)(C)O [Example 7, N^4-[1S-(Benzhydryl-carbamoyl)-2-hydroxy-2-methyl-propylcarbamoyl]-2S-methoxy-5R-methyl-hexanoic acid] |  |  |  | 20000 nM | 40% | 50% |  |  |
| CC(C)(C)[C@H](NC(=O)[C@H](C/C=C/c1ccccc1)[C@H](O)C(=O)NO)C(=O)NC(c1ccccc1)c1ccccc1 [Example 9, N^4-[1S-(Benzhydryl-carbamoyl)-2,2-dimethyl-propyl]-2S,N^1-dihydroxy-3R-(3-phenyl-allyl)-succinamide] | 500 nM |  |  |  | 30% |  | 800 nM | 40000 nM |
